{
  "source": "patent US6469002B1",
  "about": "“Imidazolidine compounds” (Millennium Pharmaceuticals, Inc., priority 2001, dated 2002)",
  "data": [
    {"biological_target": "T1, CXCR3 (Homo sapiens, UniProt P49682)", "T1 construct": "expressed in transfected cells", "T1 sequence (P49682 1-368)": "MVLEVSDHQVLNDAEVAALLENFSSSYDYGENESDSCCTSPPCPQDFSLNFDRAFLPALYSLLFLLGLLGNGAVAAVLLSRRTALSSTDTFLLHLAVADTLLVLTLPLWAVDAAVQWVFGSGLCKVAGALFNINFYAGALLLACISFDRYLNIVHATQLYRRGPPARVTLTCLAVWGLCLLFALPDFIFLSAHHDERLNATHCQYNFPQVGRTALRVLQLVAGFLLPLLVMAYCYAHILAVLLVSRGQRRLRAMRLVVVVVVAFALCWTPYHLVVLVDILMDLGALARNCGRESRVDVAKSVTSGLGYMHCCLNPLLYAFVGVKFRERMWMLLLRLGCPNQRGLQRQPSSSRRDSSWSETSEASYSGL", "experiment": "CXCR3/IP-10 radioligand binding (125I-IP-10 competition, CXCR3.L1/2 cell membranes)", "settings": "Table 5; test compound 10 μmol/L; 125I-labeled IP-10 binding to CXCR3.L1/2 transfectant cell membrane", "source_text": "(§1) The activity of the compounds of the present invention can be assessed using a suitable assay, such as a receptor binding assay, a chemotaxis assays, an extracellular acidification assay or a calcium flux assay (see, for example, Hesselgesser et al., J. Biol. Chem. 273(25):15687-15692 (1998) and WO 98/02151). For example, as described herein, small organic molecule antagonists of CXCR3/IP-10 binding have been identified utilizing cells engineered to express recombinant human CXCR3 (CXCR3.L1/2) and which bind ^125I-IP-10 and chemotax in response to IP-10, Mig or I-TAC. Specifically, a high through-put receptor binding assay, which monitors ^125I-IP-10 binding to CXCR3.L1/2 cell membranes, was used to identify small molecule antagonists which block binding of IP-10, Mig or I-TAC to CXCR3.\n(§2) CXCR3.L1/2 cells were pelleted by centrifugation and stored at −80° C. The cells were lysed by thawing and resuspending at about 1.5×10^7 cells/ml in a hypotonic buffer (5 m mol/L HEPES (pH 7.2), 2 mmol/L EDTA, 10 μg/ml each leupeptin, aprotinin, and chymostatin, and 100 μg/ml PMSF (all from Sigma, St. Louis)). Nuclei and cellular debris was removed by centrifugation ([…], at 4° C.) for 10 min. The supematant was transferred to chilled centrifuge tubes (Nalge, Rochester, N.Y.) and the membrane fraction was recovered by centrifugation (25,000 g at 4° C.) for 45 min. The membrane pellet was resuspended in freezing buffer (10 mM HEPES (pH 7.2), 300 mmol/L Sucrose, 5 μg/ml each of leupeptin, aprotinin, and chymostatin, and 10 μg/ml PMSF). The total protein concentration was determined using a coomassie blue staining protein concentration assay kit (BioRad). The membrane preparation was aliquoted and stored at −80° C. until time of use.\n(§3) CXCR3/IP-10 binding was performed in 96-well polypropylene plates (Costar) in a final volume of 0.1 ml of HBB buffer (50 mmol/L Hepes pH 7.4, 1 mmol/L CaCl2, 5 mmol/L MgCl2, 0.02% sodium azide, 0.5% BSA (bovine serum albumin)) containing 1 to 5 μg of CXCR3.L1/2 transfectant cell membrane protein and 0.05 to 0.2 nmol/L ^125I-labeled IP-10 (NEN, Boston, Mass.). Competition binding experiments were performed by including variable concentrations of unlabeled IP-10 or test compound. Nonspecific binding was determined following the addition of a 250 nmol/L unlabelled IP-10. Samples were incubated for 60 min at room temperature, and bound and free tracer (^125I-IP10) were separated by filtration through 96-well GF/B filterplates (Packard) presoaked in 0.3% polyethyleneimine. The filters were washed in HBB further supplemented with 0.5 mol/L NaCl, dried, and the amount of bound radioactivity determined by liquid scintillation counting. The competition is presented as the percent specific binding as calculated by 100×[(S-B)/(T-B)], where S is the radioactivity bound for each sample, B is background binding, and T is total bound in the absence of competitors. Duplicates were used throughout the experiments.", "units": {"% inhibition at 10 μmol/L": "%", "inhibition at 10 µM": "%"}, "values": [
      {"compound": "1-[2-{N-Ethyl-N-(4-N,N-dimethylaminomethylbenzyl)amino}ethyl]-3-(1-naphthylmethyl)-2-imidazolidinylidenepropanedinitrile [Compound 9]", "% inhibition at 10 μmol/L": 94},
      {"compound": "CCN(CCN1CCN(Cc2cccc3ccccc23)C1=C(C#N)C#N)Cc1ccc(CN2CCCCC2)cc1", "note": "[Compound 2, 1-[2-{N-Ethyl-N-(4-piperidinomethylbenzyl)amino}ethyl]-3-(1-naphthylmethyl)-2-imidazolidinylidenepropanedinitrile]", "% inhibition at 10 μmol/L": 96},
      {"compound": "CCN(CCN1CCN(Cc2cccc3ccccc23)C1=C(C#N)C#N)Cc1ccc(OCCN2CCCC2)cc1", "note": "[Compound 4, 1-[2-{N-Ethyl-N-{4-(2-(1-pyrrolidinyl)ethoxy)benzyl}amino}ethyl]-3-(1-naphthylmethyl)-2-imidazolidinylidenepropanedinitrile]", "% inhibition at 10 μmol/L": 76},
      {"compound": "CN(CCN1CCN(Cc2cccc3ccccc23)C1=C(C#N)C#N)Cc1ccc(CN2CCCCC2)cc1", "note": "[Compound 5, 1-[2-{N-Methyl-N-(4-piperidinomethylbenzyl)amino}ethyl]-3-(1-naphthylmethyl)-2-imidazolidinylidenepropanedinitrile]", "% inhibition at 10 μmol/L": 99},
      {"compound": "CN(CCN1CCN(Cc2cccc3ccccc23)C1=C(C#N)C#N)Cc1cccc(CN2CCCCC2)c1", "note": "[Compound 6, 1-[2-{N-Methyl-N-(3-piperidinomethylbenzyl)amino}ethyl]-3-(1-naphthylmethyl)-2-imidazolidinylidenepropanedinitrile]", "% inhibition at 10 μmol/L": 99},
      {"compound": "CCN(CCN1CCN(Cc2cccc3ccccc23)C1=C(C#N)C#N)Cc1ccc(CN2CCOCC2)cc1", "note": "[Compound 7, 1-[2-{N-Ethyl-N-(4-morpholinomethylbenzyl)amino}ethyl]-3-(1-naphthylmethyl)-2-imidazolidinylidenepropanedinitrile]", "% inhibition at 10 μmol/L": 92},
      {"compound": "CCN(CCN1CCN(Cc2cccc3ccccc23)C1=C(C#N)C#N)Cc1ccc(CN2CCN(C)CC2)cc1", "note": "[Compound 8, 1-[2-{N-Ethyl-N-(4-(4-methylpiperazinyl)methylbenzyl)amino}ethyl]-3-(1-naphthylmethyl)-2-imidazolidinylidenepropanedinitrile]", "% inhibition at 10 μmol/L": 86},
      {"compound": "CCCNCc1ccc(CN(CC)CCN2CCN(Cc3cccc4ccccc34)C2=C(C#N)C#N)cc1", "note": "[Compound 10, 1-[2-{N-Ethyl-N-(4-(N-propylamino)methylbenzyl)amino}ethyl]-3-(1-naphthylmethyl)-2-imidazolidinylidenepropanedinitrile]", "% inhibition at 10 μmol/L": 100},
      {"compound": "CCN(CCN1CCN(Cc2cccc3ccccc23)C1=C(C#N)C#N)Cc1ccc(CN2CCN(CCO)CC2)cc1", "note": "[Compound 11, 1-[2-{N-Ethyl-(4-(4-(2-hydroxyethyl)piperazinyl)methylbenzyl)amino}ethyl]-3-(1-naphthylmethyl)-2-imidazolidinylidenepropanedinitrile]", "% inhibition at 10 μmol/L": 91},
      {"compound": "CC(=O)N(CCN1CCN(Cc2cccc3ccccc23)C1=C(C#N)C#N)Cc1cccc(CN2CCCCC2)c1", "note": "[Compound 12, 1-[2-{N-Acetyl-N-(3-piperidinomethylbenzyl)amino}ethyl]-3-(1-naphthylmethyl)-2-imidazolidinylidenepropanedinitrile]", "% inhibition at 10 μmol/L": 76},
      {"compound": "N#CC(C#N)=C1N(CCN(Cc2cccc(CN3CCCCC3)c2)C(=O)c2ccccc2)CCN1Cc1cccc2ccccc12", "note": "[Compound 13, 1-[2-{N-Benzoyl-N-(3-piperidinomethylbenzyl)amino}ethyl]-3-(1-naphthylmethyl)-2-imidazolidinylidenepropanedinitrile]", "% inhibition at 10 μmol/L": 61},
      {"compound": "N#CC(C#N)=C1N(CCN(Cc2cccc(CN3CCCCC3)c2)C(=O)c2ccco2)CCN1Cc1cccc2ccccc12", "note": "[Compound 14, 1-[2-{N-Furoyl-N-(3-piperidinomethylbenzyl)amino}ethyl]-3-(1-naphthylmethyl)-2-imidazolidinylidenepropanedinitrile]", "% inhibition at 10 μmol/L": 85},
      {"compound": "N#CC(C#N)=C1N(CCN(Cc2cccc(CN3CCCCC3)c2)C(=O)c2cccs2)CCN1Cc1cccc2ccccc12", "note": "[Compound 15, 1-[2-{N-(2-Thiophenecarbonyl)-N-(3-piperidinomethylbenzyl)amino}ethyl]-3-(1-naphthylmethyl)-2-imidazolidinylidenepropanedinitrile]", "% inhibition at 10 μmol/L": 71},
      {"compound": "CS(=O)(=O)N(CCN1CCN(Cc2cccc3ccccc23)C1=C(C#N)C#N)Cc1cccc(CN2CCCCC2)c1", "note": "[Compound 16, 1-[2-{N-Methanesulfonyl-N-(3-piperidinomethylbenzyl)amino}ethyl]-3-(1-naphthylmethyl)-2-imidazolidinylidenepropanedinitrile]", "% inhibition at 10 μmol/L": 89},
      {"compound": "CCN(CCN1CCN(Cc2cccc3ccccc23)C1=C(C#N)C#N)Cc1cccc(CN2CCCCC2)c1", "note": "[Compound 17, 1-[2-{N-Ethyl-N-(3-piperidinomethylbenzyl)amino}ethyl]-3-(1-naphthylmethyl)-2-imidazolidinylidenepropanedinitrile]", "inhibition at 10 µM": 96},
      {"compound": "N#CC(C#N)=C1N(CCN(Cc2ccccc2)Cc2cccc(CN3CCCCC3)c2)CCN1Cc1cccc2ccccc12", "note": "[Compound 18, 1-[2-{N-Benzyl-N-(3-piperidinomethylbenzyl)amino}ethyl]-3-(1-naphthylmethyl)-2-imidazolidinylidenepropanedinitrile]", "% inhibition at 10 μmol/L": 67},
      {"compound": "N#CC(C#N)=C1N(CCN(Cc2cccc(CN3CCCCC3)c2)Cc2cccc(CN3CCCCC3)c2)CCN1Cc1cccc2ccccc12", "note": "[Compound 19, 1-[2-{N,N-Bis(3-piperidinomethylbenzyl)amino}ethyl]-3-(1-naphthylmethyl)-2-imidazolidinylidenepropanedinitrile]", "% inhibition at 10 μmol/L": 68},
      {"compound": "N#CC(C#N)=C1N(CCCNCc2ccc(CN3CCCCC3)cc2)CCN1Cc1cccc2ccccc12", "note": "[Compound 20, 1-[2-{N-(4-(1-Piperidinomethyl)benzyl)amino}propyl]-3-(1-naphthylmethyl)-2-imidazolidinylidenepropanedinitrile]", "inhibition at 10 µM": 74},
      {"compound": "CCCNCc1ccc(CN(CC)CCN2CCN(Cc3cc(C)cc(C)c3)C2=C(C#N)C#N)cc1", "note": "[Compound 21, 1-[2-{N-Ethyl-N-(4-(1-propylaminomethyl)benzyl)amino}ethyl]-3-(3,5-dimethylbenzyl)-2-imidazolidinylidenepropanedinitrile]", "inhibition at 10 µM": 99}
    ]},
    {"biological_target": "T1, CXCR3", "experiment": "CXCR3/IP-10 radioligand binding (125I-IP-10 competition, CXCR3.L1/2 cell membranes)", "settings": "Table 6; test compound 10 μmol/L; 125I-labeled IP-10 binding to CXCR3.L1/2 transfectant cell membrane", "source_text": "as §1, §2, §3", "units": {"inhibition at 10 µM": "%"}, "values": [
      {"compound": "CCCNCc1ccc(CNCCN2CCN(Cc3cc(C)cc(C)c3)C2=C(C#N)C#N)cc1", "note": "[Compound 22, 1-[2-{N-(4-(1-Propylaminomethyl)benzyl)amino}ethyl]-3-(3,5-dimethylbenzyl)-2-imidazolidinylidenepropanedinitrile]", "inhibition at 10 µM": 92},
      {"compound": "CCN(CCN1CCN(Cc2cc(C)cc(C)c2)C1=C(C#N)C#N)Cc1ccc(CN2CCCCC2)cc1", "note": "[Compound 23, 1-[2-{N-Ethyl-N-(4-(1-piperidinomethyl)benzyl)amino}ethyl]-3-(3,5-dimethylbenzyl)-2-imidazolidinylidenepropanedinitrile]", "inhibition at 10 µM": 97},
      {"compound": "CCN(CCN1CCN(Cc2cc(Cl)cc(Cl)c2)C1=C(C#N)C#N)Cc1ccc(CN2CCCCC2)cc1", "note": "[Compound 24, 1-[2-{N-Ethyl-N-(4-(1-piperidinomethyl)benzyl)amino}ethyl]-3-(3,5-dichlorobenzyl)-2-imidazolidinylidenepropanedinitrile]", "inhibition at 10 µM": 91}
    ]}
  ]
}
